The values that follow come from patent US20240207415A1, “BI-FUNCTIONAL COMPOUNDS AND METHODS FOR TARGETED UBIQUITINATION OF ANDROGEN RECEPTOR” (MONTELINO THERAPEUTICS, INC., priority 2022, published 2024).

SMILES strings stand for the structures.

The test system of the assay is 22Rv1-Enz^R. In words: 22Rv1-Enz^R cell proliferation assay. Type of assay: cell-based. As to conditions: human prostate cancer cell line 22Rv1-Enz^R; 6-day culture, cell media changed every 24 hours; half maximal growth inhibition constant; read-out: 22Rv1-Enz^R proliferation assay GIC50. On the procedure:
The human prostate cancer cell line, 22Rv1 has been reported to express a high level of AR-V7. According to one procedure, 22Rv1 is seeded at 50,000 cells/well on a 24-well plate in quadruplicate and treated with test compounds in concentrations ranging up to 20 μM for four days. Standard culture media is RPMI-1640 supplemented with 10% fetal bovine serum. The test compound initially is dissolved in DMSO at 50 mM. This stock solution is then diluted as needed for the indicated concentrations. At the end of the four-day period, cells are harvested using 1% trypsin and counted using an automated cell counter.
Selected compounds may be tested in the human prostate cancer cell line, 22Rv1-Enz^R as described in Geun Taek Lee et al., Molecular Cancer Therapeutics, 20:490-9 (2021). These procedures are similar to that described in Experimental Example 1, above, except that the assay conditions are a 6-day culture with cell media changed every 24 hours.
In the following Table (half maximal growth inhibition constant, GIC50): (*)-GIC50 2-10 μM; (++)-GIC50 1.0-2.0 μM; (+++)-GIC50<1.0 μM.
For `O=C(COc1ccc(C2CCC(=O)NC2=O)cc1)NCCCCCCCCNC(=O)COc1c(-c2csc(N3CCOCC3)n2)ccc(F)c1F` (stereo not drawn) [Example 1, 2-(2,3-Difluoro-6-(2-morpholinothiazol-4-yl)phenoxy)-N-(8-(2-(4-(2,6-dioxopiperidin-3-yl)phenoxy)acetamido)octyl)acetamide], the IC50 was under 1 µM. Then `O=C1CCC(c2ccc(OCC(=O)N3CCN(CCOCCOc4c(-c5csc(N6CCOCC6)n5)ccc(F)c4F)CC3)cc2)C(=O)N1` (stereo not drawn) [Example 2, 3-(4-(2-(4-(2-(2-(2,3-Difluoro-6-(2-morpholinothiazol-4-yl)phenoxy)ethoxy)ethyl)piperazin-1-yl)-2-oxoethoxy)phenyl)piperidine-2,6-dione], with 1 to 2 µM; and `O=C(COc1ccc(C2CCC(=O)NC2=O)cc1)NCCOCCOCCOCCOc1c(-c2csc(N3CCOCC3)n2)ccc(F)c1F` (stereo not drawn) [Example 3, N-(2-(2-(2-(2-(2,3-Difluoro-6-(2-morpholinothiazol-4-yl)phenoxy)ethoxy)ethoxy)ethoxy)ethyl)-2-(4-(2,6-dioxopiperidin-3-yl)phenoxy)acetamide], with 2 to 10 µM; and `O=C(CCCCCCCCOc1c(-c2csc(N3CCOCC3)n2)ccc(F)c1F)NCCCCC(=O)Nc1ccc(C2CCC(=O)NC2=O)cc1` (stereo not drawn) [Example 4, 9-(2,3-difluoro-6-(2-morpholinothiazol-4-yl)phenoxy)-N-(5-((4-(2,6-dioxopiperidin-3-yl)phenyl)amino)-5-oxopentyl)nonanamide], with under 1 µM.

Take `O=C(CCCCCCCCOc1cccc(-c2csc(N3CCOCC3)n2)c1)NCCCCC(=O)Nc1ccc(C2CCC(=O)NC2=O)cc1` (stereo not drawn) [Example 6, N-(5-((4-(2,6-dioxopiperidin-3-yl)phenyl)amino)-5-oxopentyl)-9-(3-(2morpholinothiazol-4-yl)phenoxy)nonanamide]: the IC50 lay in the range of 2 to 10 µM. As for `O=C(CCCCCCCCOc1ccc(-c2csc(N3CCOCC3)n2)cc1)NCCCCC(=O)Nc1ccc(C2CCC(=O)NC2=O)cc1` (stereo not drawn) [Example 7, N-(5-((4-(2,6-Dioxopiperidin-3-yl)phenyl)amino)-5-oxopentyl)-9-(4-(2morpholinothiazol-4-yl)phenoxy)nonanamide], the IC50 lay within 1 to 2 µM.

Consider `O=C1CCC(c2ccc(OCCOCCOCCn3cc(CCOc4c(-c5csc(N6CCOCC6)n5)ccc(F)c4F)nn3)cc2)C(=O)N1` (stereo not drawn) [Example 10, 3-(4-(2-(2-(2-(4-(2-(2,3-difluoro-6-(2-morpholinothiazol-4-yl)phenoxy)ethyl)-1H-1,2,3-triazol-1-yl)ethoxy)ethoxy)ethoxy)phenyl)piperidine-2,6-dione], for which the IC50 was 2 to 10 µM. Regarding `O=C1CCC(c2ccc(OCCOCCOCCOCCn3cc(CCOc4c(-c5csc(N6CCOCC6)n5)ccc(F)c4F)nn3)cc2)C(=O)N1` (stereo not drawn) [Example 11, 3-(4-(2-(2-(2-(2-(4-(2-(2,3-difluoro-6-(2-morpholinothiazol-4-yl)phenoxy)ethyl)-1H-1,2,3-triazol-1-yl)ethoxy)ethoxy)ethoxy)ethoxy)phenyl)piperidine-2,6-dione], the IC50 fell in the range of 1 to 2 µM.

Take `O=C1CCC(c2ccc(NC(=O)CCCCCCCCOc3c(-c4csc(N5CCOCC5)n4)ccc(F)c3F)cc2)C(=O)N1` (stereo not drawn) [Example 12, 9-(2,3-difluoro-6-(2-morpholinothiazol-4-yl)phenoxy)-N-(4-(2,6-dioxopiperidin-3-yl)phenyl)nonanamide]: the IC50 was in the range of 2 to 10 µM.

`O=C(CCCCCCCCOc1c(-c2csc(N3CCOCC3)n2)ccc(F)c1F)NCCCCCCC(=O)Nc1ccc(C2CCC(=O)NC2=O)cc1` (stereo not drawn) [Example 13, 9-(2,3-difluoro-6-(2-morpholinothiazol-4-yl)phenoxy)-N-(7-((4-(2,6-dioxopiperidin-3-yl)phenyl)amino)-7-oxoheptyl)nonanamide]: the IC50 was in the range of 1 to 2 µM.

Take `O=C(CCCCCCCCOc1c(-c2csc(N3CCOCC3)n2)ccc(F)c1F)NCCOCCOCC(=O)Nc1ccc(C2CCC(=O)NC2=O)cc1` (stereo not drawn) [Example 14, 9-(2,3-difluoro-6-(2-morpholinothiazol-4-yl)phenoxy)-N-(2-(2-(2-((4-(2,6-dioxopiperidin-3-yl)phenyl)amino)-2-oxoethoxy)ethoxy)ethyl)nonanamide]: the IC50 was 1 to 2 µM.

With `O=C(CCCCCCCCOc1c(-c2csc(N3CCOCC3)n2)ccc(F)c1F)NCCCCNC(=O)c1ccc(N2CCC(=O)NC2=O)cc1` [Example 15, N-(4-(9-(2,3-difluoro-6-(2-morpholinothiazol-4-yl)phenoxy)nonanamido)butyl)-4-(2,4-dioxotetrahydropyrimidin-1(2H)-yl)benzamide], the IC50 lay within 2 to 10 µM.
